From US20220024963A1, “SALT OF TRIPHOSPHATE PHOSPHORAMIDATES OF NUCLEOTIDES AS ANTICANCER COMPOUNDS” (priority 2019, published 2022)
Where a name gives a salt, the structure may show the parent alone. Read-outs that look alike come from different tables or passages of the source.

How the values were obtained:
CCRF-CEM (ALL) = assay: cells; assay type: cell-based; conditions: for Survival @ 25 nM / Survival @ 50 nM / Survival @ 125 nM: percentage of cell survival, 72 h; for IC50: 72 h treatment, AlamarBlue
Text: (§1) The efficacy (evaluated by IC50) of clofarabine and 3 different compounds representing different class of clofarabine ProTides (monophosphate, diphosphate and triphosphate molecules) was compared.
(§2) The tested cancer cell lines were acute lymphoblastic leukaemia (ALL), acute myeloid leukaemia (AML) and lymphoma: CCRF-CEM (ALL), HL60 (AML), KG1 (AML), OCI-AML3 (AML) and RL (lymphoma), grown in suspension, in RPMI-1640 media, supplemented with 10% FBS serum and 1% pen strep, except for KG1 cell line for which FBS was 20%.
(§3) For all experiments, cells were plated on a 96 well plate, at a density of 10,000 cells/well in 50 μL media. Dilutions from stock concentration to working solutions were prepared in media; at twice the required concentration and 50 μL was added per well (this achieving the final concentrations described in results below). Control untreated received 50 μL of plain media. After 66 h 10 μL of resazurin was added per well (dilution 1:10). Cells were then incubated with for up to 6 h. After 72 h treatment, cytotoxicity assay (AlamarBlue™−resazurin dye) was performed to determine cell survival. Plates were scanned with a BioHit800 plate reader and data were analysed with Excel and GraphPad Prism.
(§4) A low IC50 indicates greater potency under these laboratory conditions.
(§5) Clofarabine, A, 5a, 5b, 5c, 5d, 5e and 5f were tested against CCRF-CEM and OCI-AML3 cells. Data is represented as the percentage ofcell survival for each ofthe different concentrations to which cells were exposed, rather than calculating a formal IC50 from only two or three datapoints.

OCI-AML3 (AML) = assay: cells; assay type: cell-based; conditions: for Survival @ 50 nM: OCI-AML3, 50 nM; for Survival @ 50 nM / Survival @ 125 nM: percentage of cell survival, 72 h; for Survival @ 125 nM: OCI-AML3, 125 nM; for IC50: OCI-AML3, 72 h treatment, AlamarBlue
Text: as §1, §2, §3, §4, §5

[1] = test system: CCRF-CEM and OCI-AML3 cells; assay type: cell-based; conditions: both cell lines
Method: as §3, §5

CCRF-CEM = assay: In vitro viability assay, CellTiterGlo, 72 h (Example A); assay type: cell-based; conditions: for EC50: read-out: Ab EC50
Method: (§6) A compound of the invention was assayed for cytotoxic activity in an array of different solid tumours and haematological malignancies using the following assay.
(§7) In vitro viability assay was performed to assess the effects of compounds on cell viability in selected cell lines over 72 h using the CellTiterGlo (CTG, Promega-G7573) assay. The tests were performed in duplicates with treatment of compounds at 9 points, 3.16 folds titration in 96 well plates over ˜72 h. The compound starting concentrations were 198 μM. Cell viability assay using CellTiterGlo in 96-well plate were performed. Compound treatment 72 h, standard growth conditions, duplicates. Compounds were dissolved to 40 mM with thawed […]. Compounds were serially diluted at 3.16 fold in thawed DMSO and warmed to 37° C. before being dissolved in media (2 μL+200 μL). After compounds were dissolved in media, media containing compounds were warmed to 37° C. in incubator and then compounds in media were added to cell plates (50 μL+50 μL) in duplicates. The compounds' final concentrations were from 198 μM to 19.8 nM. All compound solubilities were checked and recorded again, then the plates were transferred to CO2 tissue culture incubator immediately and incubated for 3 days. DMSO final concentration is 0.5%.

HL-60 = assay: as above; assay type: cell-based; conditions: HL-60, CellTiterGlo; for EC50: read-out: Ab EC50
Method: as §6, §7

HT29 = assay: as above; assay type: cell-based
Method: as §6, §7

HepG2 = assay: as above; assay type: cell-based; conditions: for EC50: read-out: Ab EC50
Method: as §6, §7

K562 = assay: as above; assay type: cell-based; conditions: for EC50: read-out: Ab EC50
Method: as §6, §7

KG-1 = assay: as above; assay type: cell-based; conditions: KG-1, CellTiterGlo; for EC50: read-out: Ab EC50
Method: as §6, §7

MCF-7 = assay: as above; assay type: cell-based
Method: as §6, §7

MOLT-4 = assay: as above; assay type: cell-based; conditions: MOLT-4, CellTiterGlo; for EC50: read-out: Ab EC50
Method: as §6, §7

RL = assay: as above; assay type: cell-based; conditions: for EC50: read-out: Ab EC50
Method: as §6, §7

RPMI-8226 = assay: as above; assay type: cell-based, Human; conditions: RPMI-8226, CellTiterGlo; for EC50: read-out: Ab EC50
Method: as §6, §7

HL60 (AML) = assay: Cytotoxicity assay (AlamarBlue - resazurin dye), 72 h (Example B); assay type: cell-based
Text: as §1, §2, §3, §4

KG1 (AML) = assay: as above; assay type: cell-based; conditions: KG1, 72 h treatment
Text: as §1, §2, §3, §4

RL (lymphoma) = assay: as above; assay type: cell-based; conditions: 72 h treatment
Text: as §1, §2, §3, §4

Compound	Survival @ 25 nM (CCRF-CEM (ALL)) [%]	Survival @ 50 nM (CCRF-CEM (ALL)) [%]	Survival @ 125 nM (CCRF-CEM (ALL)) [%]	Survival @ 50 nM (OCI-AML3 (AML)) [%]	Survival @ 125 nM (OCI-AML3 (AML)) [%]	efficacy compared to A and clofarabine [1]	Top Inhibit (CCRF-CEM) [%]	Top Inhibit (HL-60) [%]	Top Inhibit (HT29) [%]	Top Inhibit (HepG2) [%]	Top Inhibit (K562) [%]	Top Inhibit (KG-1) [%]	Top Inhibit (MOLT-4) [%]	Top Inhibit (RL) [%]	Top Inhibit (RPMI-8226) [%]	IC50 (KG1 (AML)) [nM]	IC50 (RL (lymphoma)) [nM]	also measured
(2S)-Neopentyl 2-(((((((((2R,3R,4S,5R)-5-(6-amino-2-chloro-9H-purin-9-yl)-4-fluoro-3-hydroxytetrahydrofuran-2-yl)methoxy)(hydroxy)phosphoryl)oxy)(hydroxy)phosphoryl)oxy)(phenoxy)phosphoryl)amino)-3-phenylpropanoate di-triethylammonium salt [Compound 5f]	85	16	14	57	32	superior efficacy												
C[C@H](NP(=O)(Oc1ccccc1)OP(=O)(O)OP(=O)(O)OC[C@H]1O[C@@H](n2cnc3c(N)nc(Cl)nc32)C(F)[C@H]1O)C(=O)OCc1ccccc1 (stereo partly drawn) [Compound 5a, (2S)-Benzyl 2-(((((((((2R,3R,4S,5R)-5-(6-amino-2-chloro-9H-purin-9-yl)-4-fluoro-3-hydroxytetrahydrofuran-2-yl)methoxy)(hydroxy)phosphoryl)oxy) (hydroxy)phosphoryl)oxy)(phenoxy)phosphoryl)amino)propanoate, di-triethylammonium salt]	81	100	13	86	51		99	97	64	51	33	92	86	57	94	349	117	EC50 (CCRF-CEM; Homo sapiens): < 20 nM; EC50 (HL-60; Homo sapiens): 330 nM; EC50 (HT29; Homo sapiens, HT-29, read-out: Ab EC50): 500 nM; EC50 (HepG2; Homo sapiens): 620 nM; EC50 (K562; Homo sapiens): > 198 µM; EC50 (KG-1; Homo sapiens): 310 nM; EC50 (MCF-7; Homo sapiens, MCF7, MCF-7, CellTiterGlo, read-out: Ab EC50): > 198 µM; Top Inhibit (MCF-7; MCF-7, CellTiterGlo): 40%; EC50 (MOLT-4; Homo sapiens): 40 nM; EC50 (RL; Homo sapiens): 44.6 µM; EC50 (RPMI-8226; Homo sapiens): 20.2 µM; IC50 (CCRF-CEM (ALL); Homo sapiens): 79 nM; IC50 (OCI-AML3 (AML); Homo sapiens, OCI-AML-3): 114 nM; IC50 (HL60 (AML); Homo sapiens, HL-60, HL60, 72 h treatment): 56.2 nM
(2S)-Isopropyl 2-(((((((((2R,3R,4S,5R)-5-(6-amino-2-chloro-9H-purin-9-yl)-4-fluoro-3-hydroxytetrahydrofuran-2-yl)methoxy)(hydroxy)phosphoryl)oxy)(hydroxy) phosphoryl)oxy)(phenoxy)phosphoryl)amino)propanoate di-triethylammonium salt [Compound 5c]	93	94	14	99	61													
C[C@H](NP(=O)(Oc1cccc2ccccc12)OP(=O)(O)OP(=O)(O)OC[C@H]1O[C@@H](n2cnc3c(N)nc(Cl)nc32)[C@@H](F)[C@@H]1O)C(=O)OCc1ccccc1 (stereo partly drawn) [Compound 5b, (2S)-Benzyl 2-(((((((((2R,3R,4S,5R)-5-(6-amino-2-chloro-9H-purin-9-yl)-4-fluoro-3-hydroxytetrahydrofuran-2-yl)methoxy)(hydroxy)phosphoryl)oxy)(hydroxy)phosphoryl)oxy)(naphthalen-1-yloxy)phosphoryl)amino)propanoate di-triethylammonium salt]	36	18	13	64	24	superior efficacy												
Clofarabine	36	17	13	47	19		99	97	68	57	32	93	94	61	80	244	114	EC50 (CCRF-CEM): < 20 nM; EC50 (HL-60): 40 nM; EC50 (HT29; read-out: Ab EC50): 260 nM; EC50 (HepG2): 1090 nM; EC50 (K562): > 198 µM; EC50 (KG-1): 70 nM; EC50 (MOLT-4): < 20 nM; EC50 (RL): 0.31 µM; EC50 (RPMI-8226): 27.6 µM; IC50 (CCRF-CEM (ALL)): 40.5 nM; IC50 (OCI-AML3 (AML)): 74 nM; IC50 (HL60 (AML); HL60, 72 h treatment): 41.5 nM
